Assay results from patent US20130053381A1, “2,4-DIOXO-1,4-DIHYDRO-2H-QUINAZOLIN-3-YL-SULFONAMIDE DERIVATIVES” (NOVARTIS AG, priority 2010, published 2013).
Read-outs that look alike come from different tables or passages of the source.

Key:
[1] = target: AMPA receptor; assay: [3H]CNQX binding test (AMPA-receptor binding); set-up: species or system rat; conditions: Table 2 parent compounds; rat; read-out: [3H]CNQX IC50 AMPA receptor binding, rat
Experimental: CNQX binding test (Honore et al. Biochem. Pharmacol. 1989, 38: 3207-3212). This test is performed as follows.
Brain membranes: The animals are sacrificed, the brain removed and homogenized in 10 volumes of ice-cold 10% sucrose with a glass/Teflon homogenizer at positions 5 for 30 sec. The membranes are centrifuged at 1000×g for 10 min, and the supernatant centrifuged at 20,000×g for 15 min. The resulting pellet is resuspended in 10 volumes of cold water with a tissue homogenizer (Brinkman Polytron) at position 5 for 15 sec and the suspension centrifuged at 8000×g for 10 min. The supernatant including the buffy layer is centrifuged at 40,000×g for 20 min, the pellet resuspended in 5 volumes of water and the suspension frozen (20-30 min in dry ice/MeOH) and thawed (water-bath at 37° C.) twice. The suspension is centrifuged at 40,000×g for 20 min, the pellet resuspended in 50 mM HEPES/KOH, pH 7.5, and centrifuged at 40,000×g for 10 min. The final pellet is resuspended with a glass/Teflon homogenizer in 5 volumes of HEPES/KOH buffer; 2 mL aliquots are frozen and stored in liquid nitrogen.
Pretreatment of membranes: Membranes are thawed at 35° C. and once washed with 50 mM HEPES/KOH by centrifugation at 39,000×g for 10 min. The final pellet is resuspended with a glass/Teflon homogenizer in the same buffer.
Radioligand binding assay: It is performed using 96-well microtiterplates in a volume of 0.3 mL of 50 mM HEPES/KOH, pH 7.2, 100 μg membrane protein, 5 nM [^3H]-CNQX (NEN) and the compound to be tested. Incubation is performed at 4° C. for 40 min and the reaction is terminated by centrifugation (Sigma 4K10) at 3700×g for 30 min. The pellet is washed once with cold buffer and then dissolved in 0.02 mL of the tissue solubilizer Soluene for 20 min. Two hundred μL of the scintillation fluid Microscint 20 (Packard) are added and the radioactivity is counted in a Packard Topcount scintillation counter at an efficiency of 40-45%. Nonspecific binding is defined by 10 μM CNQX. Assays are performed in triplicate.

[2] = test system: OF1 mice; assay: Maximal electroshock test (MES Test); assay type: in vivo; conditions: Mus musculus, po, read-out: %-Protection; for responders at 50 mg/kg: p.o.
Summary of the method: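 Compound given p.o. (typically 50 mg/kg) 1 h before tonic-clonic convulsions were induced via temporal electrodes (50 Hz, 18 mA, 0.2 s); seizure lasting 3 s or less counted as protection. Read-out is percent protected of five mice per condition; ED50 calculated, blood exposure sampled after shock.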

Row | Structure (SMILES) | IC50 [1] | responders at 50 mg/kg ([2]; pre-treatment time −1 h) | responders at 15 mg/kg ([2]; Dose: 15 mg/kg, p.o. (footnote c), pre-treatment time −1 h) | responders at 50 mg/kg ([2]; Table 5, pre-treatment time −0.25 h) | responders at 50 mg/kg ([2]; Table 5, pre-treatment time −0.5 h) | responders at 50 mg/kg ([2]; Table 5, pre-treatment time −1 h) | responders at 50 mg/kg ([2]; pre-treatment time −0.5 h (footnote d))
1 | CC(C)c1cc2[nH]c(=O)n(NS(C)(=O)=O)c(=O)c2cc1-c1ccnn1C [Example 3.0, N-[7-isopropyl-6-(2-methyl-2H-pyrazol-3-yl)-2,4-dioxo-1,4-dihydro-2H-quinazolin-3-yl]-methanesulfonamide] | 189 nM | – | 100% | 0% | 100% | 100% | –
2 | CCc1cc2[nH]c(=O)n(NS(C)(=O)=O)c(=O)c2cc1-c1ccnn1C [Example 2.0, N-[7-ethyl-6-(2-methyl-2H-pyrazol-3-yl)-2,4-dioxo-1,4-dihydro-2H-quinazolin-3-yl]-methanesulfonamide] | 257 nM | 80% | – | – | – | – | –

Continued, in another order:

Row | IC50 [1] | Structure (SMILES) | responders at 50 mg/kg ([2]; pre-treatment time −1 h) | responders at 15 mg/kg ([2]; Dose: 15 mg/kg, p.o. (footnote c), pre-treatment time −1 h) | responders at 50 mg/kg ([2]; Table 5, pre-treatment time −0.25 h) | responders at 50 mg/kg ([2]; Table 5, pre-treatment time −0.5 h) | responders at 50 mg/kg ([2]; Table 5, pre-treatment time −1 h) | responders at 50 mg/kg ([2]; pre-treatment time −0.5 h (footnote d))
3 | 317 nM | CCC(OC)c1cc2c(=O)n(NS(C)(=O)=O)c(=O)[nH]c2cc1C(F)(F)F (centres unmarked) [Example 11.0, N-[2,4-Dioxo-6-(1-methoxy-propyl)-7-trifluoromethyl-1,4-dihydro-2H-quinazolin-3-yl]-methanesulfonamide] | 100% | – | – | – | – | –
4 | 87 nM | CC(C)n1nccc1-c1cc2c(=O)n(NS(C)(=O)=O)c(=O)[nH]c2cc1C(F)(F)F [Example 5.0, N-[6-(2-isopropyl-2H-pyrazol-3-yl)-2,4-dioxo-7-trifluoromethyl-1,4-dihydro-2H-quinazolin-3-yl]-methanesulfonamide] | 80% | – | – | – | – | –
5 | 159 nM | CS(=O)(=O)Nn1c(=O)[nH]c2cc(C(F)(F)F)c([C@H]3CCCO3)cc2c1=O [Example 10.0, N—((R)-2,4-dioxo-6-tetrahydro-furan-2-yl-7-trifluoromethyl-1,4-dihydro-2H-quinazolin-3-yl)-methanesulfonamide] | 100% | – | – | – | – | 0%
